Experimental data from doi:10.1101/2024.03.13.583470v1, “SARS-CoV-2 methyltransferase nsp10-16 in complex with natural and drug-like purine analogs for guiding structure-based drug discovery” (biorxiv, 2024).

Biological target: T1, nsp10-16 (Severe acute respiratory syndrome coronavirus 2, UniProt P0DTD1)
T1 construct: gene rep
Assay: X-ray crystallography, soaking
Assay type: binding
Conditions: SAM site, fully replaces SAM; 10 mM soak, pH 6.5

Row | SMILES | X-ray crystallography, soaking
1 | Nc1ncnc2c1c(I)cn2[C@@H]1O[C@H](CO)[C@@H](O)[C@H]1O [5-iodotubercidin] | toyocamycin, sangivamycin and 5-iodotubercidin share the same orientation as tubercidin
2 | N#Cc1cn([C@@H]2O[C@H](CO)[C@@H](O)[C@H]2O)c2ncnc(N)c12 [toyocamycin] | toyocamycin, sangivamycin and 5-iodotubercidin share the same orientation as tubercidin
